# Measured values taken from patent US20130281491A1 (priority 2010, published 2013).
# Assay: Forced degradation of methadone hydrochloride solutions (HPLC)
# Settings: 1M hydrochloric acid or 0.1M sodium hydroxide, 25° C. for a week
smiles,measurement,value
CCC(=O)C(CC(C)N(C)C)(c1ccccc1)c1ccccc1 (stereo not shown) [methadone],Stability with acids and bases,no detected degradation
